Patent US20110152099A1, “BIOACTIVE COMPOUNDS OF ASCOPHYLLUM NODOSUM AND THEIR USE FOR ALLEVIATING SALT-INDUCED STRESS IN PLANTS” (priority 2008, published 2011)

Test system: plants under salt stress
Assay: Root length under salt stress
Format: in vivo
Details: compared to +Na untreated plants
Description: The code numbers in FIG. 18 refer to different organic extracts.

C/C=C(/CCC(C)C1CCC2C3CC=C4CC(O)CCC4(C)C3CCC12C)C(C)C (stereo not shown) [fucosterol, 24-ethylidene cholesterol]
root length: longer root length
